Structures can show the parent of a compound that is named as a salt.
Assay: collision cross section in nitrogen (drift tube, single-field); higher = larger gas-phase ion size
[1] = ion type: [M+H], ion source: APCI, ion mode: Positive
[2] = ion type: [M+H], ion source: ESI, ion mode: Positive
[3] = ion type: [M-H], ion source: ESI, ion mode: Negative
[4] = ion source: APCI, ion mode: Positive, ion type: [M]+ (permanent cation)
[5] = ion source: ESI, ion mode: Positive, ion type: [M]+ (permanent cation)
[6] = ion type: [M+Na], ion source: ESI, ion mode: Positive
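Further: chemical standards at 10 µM analysed by drift tube IMS-QTOF MS in about 3.95 torr nitrogen, mean of duplicate injections differing ≤1%, mass error below 10 ppm.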

collision cross section in nitrogen [2] [Å²]	collision cross section in nitrogen [3] [Å²]	collision cross section in nitrogen [6] [Å²]	Compound	also measured
157.2			N#Cc1ccc(C2CCCc3cncn32)cc1 (centres undefined)	collision cross section in nitrogen [1]: 157 Å²
	186.1		CCCCCCCCC=CCCCCCCCC(=O)OCCO [Poly(oxyethylene) monoleate]	
131.2			CC1COc2ccccc2N1 (centres undefined) [3-Methyl-3,4-dihydro-2H-1,4-benzoxazine]	collision cross section in nitrogen [1]: 130.4 Å²
205.3	198.1		N[C@@H](Cc1cc(I)c(Oc2ccc(O)c(I)c2)c(I)c1)C(=O)O [3,5,3'-Triiodothyronine]	
189.5		189	CCOC(=O)[C@@H](C)Oc1ccc(Oc2nc3ccc(Cl)cc3o2)cc1 [Fenoxaprop-P-ethyl]	collision cross section in nitrogen [1]: 189.9 Å²
	182		O=S1(=O)OC(c2ccc(O)cc2)(c2ccc(O)cc2)c2ccccc21 [Phenol red]	
143.9			CC(=O)O[C@H](CC(=O)[O-])C[N+](C)(C)C [Acetyl-L-carnitine hydrochloride]	
197.8	198.4	207.7	CN(C)[C@@H]1C(O)=C(C(N)=O)C(=O)[C@@]2(O)C(O)=C3C(=O)c4c(O)cccc4[C@@](C)(O)[C@H]3[C@H](O)[C@@H]12 [Oxytetracycline hydrochloride]	collision cross section in nitrogen [1]: 199.9 Å²
228.8	232.5	233.2	CCOc1cccc(-n2cc(C(=O)N3CCN(c4cc(C(=O)O)c5ccccc5c4)CC3)nc2-c2ccc(C)cc2)c1	collision cross section in nitrogen [1]: 228.4 Å²
	217.2	218.4	Oc1ccc(C2(c3ccc(O)c(C4CCCCC4)c3)CCCCC2)cc1C1CCCCC1 [1,1-Bis(3-cyclohexyl-4-hydroxyphenyl)cyclohexane]	
		194.3	C=C[C@@]1(C)CC(=O)[C@]2(O)[C@@]3(C)[C@@H](O)CCC(C)(C)[C@@H]3[C@H](O)[C@H](OC(C)=O)[C@@]2(C)O1 [Forskolin]	
	159.5	164.3	COc1ccc(OC)c(C(O)CNC(=O)CN)c1 (centres undefined) [Midodrine hydrochloride]	
	145.2		CCC(C)(CCC(C)C)C(=O)O (centres undefined) [Neodecanoic acid]	
	170.1		CCCCCCCCCCC=CC1CC(=O)OC1=O (centres undefined) [3-(Dodecenyl)dihydro-2,5-furandione]	
213.8	209.1	211	Cc1cc2c(cc1C(F)(F)F)N(C(=O)Nc1ccc(Oc3cccnc3C)nc1)CC2	collision cross section in nitrogen [1]: 214.2 Å²
	197.2		CN[C@H]1CC[C@@H](c2ccc(Cl)c(Cl)c2)c2ccc(S(N)(=O)=O)cc21	
	171.9		CC(C)(Oc1ccc(C2CC2(Cl)Cl)cc1)C(=O)O (centres undefined) [Ciprofibrate]	
	149.5		CCCCCCCC(=O)OCC [Ethyl octanoate]	
277.8	286.4	278.5	OC[C@H]1O[C@@H]2O[C@H]3[C@H](O)[C@@H](O)[C@@H](O[C@H]4[C@H](O)[C@@H](O)[C@@H](O[C@H]5[C@H](O)[C@@H](O)[C@@H](O[C@H]6[C@H](O)[C@@H](O)[C@@H](O[C@H]7[C@H](O)[C@@H](O)[C@@H](O[C@H]1[C@H](O)[C@H]2O)O[C@@H]7CO)O[C@@H]6CO)O[C@@H]5CO)O[C@@H]4CO)O[C@@H]3CO [alpha-Cyclodextrin]	
	132.5		O=C(O)c1ccc(Cl)cc1C(=O)O [Monosodium hydrogen 4-chlorophthalate]	
	174.4		CS(=O)(=O)c1ccc(C2=C(c3ccccc3)C(=O)OC2)cc1 [Rofecoxib]	
	178.6	190.1	COc1ccc2sc(C(=O)Nc3nnn[nH]3)c(OC(C)C)c2c1 [CI-959]	

Continued, molecule first:

Compound	collision cross section in nitrogen [2] [Å²]	collision cross section in nitrogen [3] [Å²]	collision cross section in nitrogen [6] [Å²]	also measured
CCCCCCCCCCCCCC[n+]1ccccc1 [Tetradecylpyridinium bromide]				collision cross section in nitrogen [4]: 185.4 Å²; collision cross section in nitrogen [5]: 185.9 Å²
O=C(Oc1ccc(Br)cc1)N1CCN2CCC1CC2 [4-Bromophenyl 1,4-diazabicyclo(3.2.2)nonane-4-carboxylate]	178.5			collision cross section in nitrogen [1]: 177.7 Å²
CCCCCCCCc1ccc(O)cc1 [4-Octylphenol]		159.9		
O=S(=O)(O)NC1CCCCC1 [Cyclamic acid]		139.6		
C#C[C@]1(O)CC[C@H]2[C@@H]3CCC4=CC(=O)CC[C@]4(C)[C@H]3CC[C@@]21C [Ethisterone]			204.6	collision cross section in nitrogen [1]: 180.2 Å²
COc1nn(C(=O)NS(=O)(=O)c2ccccc2OC(F)(F)F)c(=O)n1C [Flucarbazone-sodium]		182.9		
CC[N+](CC)(CC)CC [Tetraethylammonium bromide]				collision cross section in nitrogen [5]: 125.7 Å²
O=C1C[C@@H]2OCC=C3CN4CC[C@]56c7ccccc7N1[C@H]5[C@H]2[C@H]3C[C@H]46 [Strychnine hemisulphate salt]	175.8			collision cross section in nitrogen [1]: 172.6 Å²
CCCCCCCCCC[N+](C)(C)CCCCCCCCCC [Didecyldimethylammonium chloride]				collision cross section in nitrogen [4]: 208.2 Å²; collision cross section in nitrogen [5]: 209.1 Å²
NC(N)=Nc1nc(CSCCC(N)=NS(N)(=O)=O)cs1 [Famotidine]	168.9	169.4	174.3	collision cross section in nitrogen [1]: 168.7 Å²
CC(C)N1C(=O)N(c2ccccc2)CSC1=NC(C)(C)C [Buprofezin]	173.9		188	collision cross section in nitrogen [1]: 173.6 Å²
Cc1ccccc1OP(=O)(Oc1ccccc1)Oc1ccccc1 [Cresyl diphenyl phosphate]	178		188.4	collision cross section in nitrogen [1]: 178.3 Å²
C=C(C)C(=O)OCCOC(=O)CC(C)=O [2-(Methacryloyloxy)ethyl acetoacetate]			147.6	
O=c1[nH]cnc2c1ncn2[C@H]1CC[C@@H](CO)O1 [Didanosine]		153.5		
O=C(O)CCCOC(=O)c1ccccc1C(=O)O [Mono(3-carboxypropyl)phthalate]			156.3	
CCCCCCCCCCCCCC[N+](C)(C)C [Myristyltrimethylammonium chloride]				collision cross section in nitrogen [4]: 185.2 Å²; collision cross section in nitrogen [5]: 185.7 Å²
N=C1C=CC(=C(c2ccc(N)cc2)c2ccc(N)cc2)C=C1 [C.I. Basic Red 9 monohydrochloride]	174.1	177.9		collision cross section in nitrogen [1]: 173.3 Å²; collision cross section in nitrogen (ion type: [M+], ion source: APCI, ion mode: Positive): 173.7 Å²
CCN1CCC2(CC1)COc1cc3c(cc12)N(C(=O)c1ccc(-c2ccc(-c4nnc(C)o4)cc2C)cc1)CC3	229.1		264.1	collision cross section in nitrogen [1]: 229.6 Å²
C[CH2][Hg][S]c1ccccc1C(=O)O [Thimerosal]		146.9		

Compound	collision cross section in nitrogen [2] [Å²]	collision cross section in nitrogen [3] [Å²]	collision cross section in nitrogen [6] [Å²]	also measured
O=C(NC(=O)c1c(F)cccc1F)Nc1ccc(OC(F)(F)C(F)OC(F)(F)F)c(Cl)c1 (centres undefined) [Novaluron]		204.4		
CN(C)CCOCCN(C)CCO [2-[{2-[2-(Dimethylamino)ethoxy]ethyl}(methyl)amino]ethanol]	138.3		144	collision cross section in nitrogen [1]: 138.5 Å²
CCN(CC)c1nc(C)cc(OP(=S)(OC)OC)n1 [Pirimiphos-methyl]	167.9			collision cross section in nitrogen [1]: 165.5 Å²
COc1ccccc1OCC(O)COC(N)=O (centres undefined) [Methocarbamol]			154.6	
CC(NC(C)(C)C)C(=O)c1cccc(Cl)c1 (centres undefined) [Bupropion hydrochloride]	158.6			
O=C(CC(=O)c1ccccc1)c1ccccc1 [1,3-Diphenyl-1,3-propanedione]		154.4	165.9	
CCOP(=S)(OCC)SCS(=O)(=O)CC [Phorate sulfone]			162.8	
Cc1ncc(C[n+]2csc(CCO)c2C)c(N)n1 [Thiamine nitrate]				collision cross section in nitrogen [4]: 161.5 Å²
Cc1cc(O)c(C(C)C)cc1Cl [6-Chlorothymol]		140.5		
CC1(C)[C@@H](O[C@H]2O[C@H](C(=O)O)[C@@H](O)[C@H](O)[C@H]2O[C@@H]2O[C@H](C(=O)O)[C@@H](O)[C@H](O)[C@H]2O)CC[C@]2(C)[C@H]3C(=O)C=C4[C@@H]5C[C@@](C)(C(=O)O)CC[C@]5(C)CC[C@@]4(C)[C@]3(C)CC[C@@H]12 [Ammonium glycyrrhizinate trihydrate]	286.8	282.6	294.4	
O=C(O)C(F)(F)C(F)(F)C(F)(F)C(F)(F)C(F)(F)C(F)(F)C(F)(F)C(F)(F)F [Perfluorononanoic acid]		166.1		
CCCCOCCOCCOCc1cc2c(cc1CCC)OCO2 [Piperonyl butoxide]			179.9	
Oc1ccccc1Br [2-Bromophenol]		120.2		
CCOC(=O)COc1cc(-c2nn(C)c(OC(F)F)c2Cl)c(F)cc1Cl [Pyraflufen-ethyl]	188		198.4	
CCNc1nc(Cl)nc(NC(C)(C)C)n1 [Terbutylazine]	153.8			collision cross section in nitrogen [1]: 153.8 Å²
O=[N+]([O-])O [Potassium nitrate]		104.9		
O=C(NC(=O)c1c(F)cccc1F)Nc1cc(Cl)c(OC(F)(F)C(F)C(F)(F)F)cc1Cl (centres undefined) [Lufenuron]		205.4		
CCCOP(=O)(OCCC)OCCC [Tripropyl phosphate]			168.5	
